Eight molecules from ChEMBL document CHEMBL1134954, “Synthesis and preliminary evaluation of trans-3,4-conformationally-restricted glutamate and pyroglutamate analogues as novel EAAT2 inhibitors” (2002) can be followed below.

In one assay the test system is SNB-19. The experiment in a line: Inhibitory activity (500 uM) against Cl-dependent uptake of [3H]L-glutamate (100 uM) into SNB-19 human astrocytoma cells to determine activity at system Xc glutamate/cystine exchanger.
Conditions: not given
It is filed as functional. Details: scale not given: the % may be the effect or the level left.
As for `O=C(O)C1NC(=O)[C@@H]2CC=CC[C@@H]12` (stereo partly specified), the Activity was found to be 89%.

For the molecule `CC1=C(C)C[C@H]2C(C(=O)O)NC(=O)[C@@H]2C1` (stereo partly specified), the Activity is 103%.

Regarding `NC(C(=O)O)[C@@H]1CC=CC[C@H]1C(=O)O` (stereo partly specified), the Activity was 101%.

Take `NC(C(=O)O)[C@@H]1C2C=CC(C2)[C@H]1C(=O)O` (stereo partly specified): the Activity came out at 88%.

Take `NC(C(=O)O)[C@@H]1C2C=CC(CC2)[C@H]1C(=O)O` (stereo partly specified): the Activity turned out to be 88%.

As for `CC1=C(C)C[C@@H](C(N)C(=O)O)[C@H](C(=O)O)C1` (stereo partly specified), the Activity was 104%.

The species named for the next assay is Rattus norvegicus. The experiment in a line: Potential inhibitory activity of EAAT2 by the ability (250 uM) to attenuate the Na-dependent uptake of [3H]D-aspartate (5 uM) into synaptosomes of rat forebrain. The settings on record: Brain. Further details: scale not given: the % may be the effect or the level left. Format: functional.
Molecule `O=C(O)C1NC(=O)[C@@H]2CC=CC[C@@H]12` (stereo partly specified) had an Activity of 53%.

For the molecule `CC1=C(C)C[C@H]2C(C(=O)O)NC(=O)[C@@H]2C1` (stereo partly specified), the Activity came to 77%.

For the molecule `NC(C(=O)O)[C@@H]1CC=CC[C@H]1C(=O)O` (stereo partly specified), the Activity was 38%.

In the case of `NC(C(=O)O)[C@@H]1C2C=CC(C2)[C@H]1C(=O)O` (stereo partly specified), the Activity came out at 35%.

Turning to `NC(C(=O)O)[C@@H]1C2C=CC(CC2)[C@H]1C(=O)O` (stereo partly specified), the Activity is 70%.

Take `CC1=C(C)C[C@@H](C(N)C(=O)O)[C@H](C(=O)O)C1` (stereo partly specified): the Activity came to 71%.

`N[C@@H](CCC(=O)O)C(=O)O` displayed an Activity of 28%.

`CC(C)[C@H]1CN[C@H](C(=O)O)[C@H]1CC(=O)O` displayed an Activity of 22%.

Another assay is filed under the species Rattus norvegicus. The assay can be described thus: Inhibitory activity (250 uM) against ATP dependent uptake of [3H]L-glutamate (250 uM) by isolated synaptic vesicles from rat forebrain to quantify activity at vesicular glutamate transporter. Format: functional.
Conditions: not given
Further details: scale not given: the % may be the effect or the level left.
For the molecule `O=C(O)C1NC(=O)[C@@H]2CC=CC[C@@H]12` (stereo partly specified), the Activity worked out at 103%.

In turn, `CC1=C(C)C[C@H]2C(C(=O)O)NC(=O)[C@@H]2C1` (stereo partly specified) came in with an Activity of 96%.

As to `NC(C(=O)O)[C@@H]1CC=CC[C@H]1C(=O)O` (stereo partly specified), the Activity is 85%.

With `NC(C(=O)O)[C@@H]1C2C=CC(C2)[C@H]1C(=O)O` (stereo partly specified), the Activity came to 93%.

On to `NC(C(=O)O)[C@@H]1C2C=CC(CC2)[C@H]1C(=O)O` (stereo partly specified), for which the Activity came to 104%.

As to `CC1=C(C)C[C@@H](C(N)C(=O)O)[C@H](C(=O)O)C1` (stereo partly specified), the Activity is 99%.

Test system in a further assay: not listed separately
The assay can be described thus: Potential inhibitory activity of EAAT3 by the ability (500 uM) to attenuate the Na-dependent uptake of [3H]D-aspartate (25 uM) into C6 rat glioma cells. Format: functional. Details: scale not given: the % may be the effect or the level left.
Conditions: not given
With `O=C(O)C1NC(=O)[C@@H]2CC=CC[C@@H]12` (stereo partly specified), the Activity was 93%.

Turning to `CC1=C(C)C[C@H]2C(C(=O)O)NC(=O)[C@@H]2C1` (stereo partly specified), the Activity amounted to 97%.

In turn, `NC(C(=O)O)[C@@H]1CC=CC[C@H]1C(=O)O` (stereo partly specified) had an Activity of 95%.

In turn, `NC(C(=O)O)[C@@H]1C2C=CC(C2)[C@H]1C(=O)O` (stereo partly specified) registered an Activity of 87%.

`NC(C(=O)O)[C@@H]1C2C=CC(CC2)[C@H]1C(=O)O` (stereo partly specified) displayed an Activity of 97%.

`CC1=C(C)C[C@@H](C(N)C(=O)O)[C@H](C(=O)O)C1` (stereo partly specified) registered an Activity of 100%.
